SMILES strings stand for the structures. Values joined by “and” are separate entries in the source; they are usually repeats but may differ in a detail not shown here. Equal entries are not always repeated. Where two headings read alike, the source gives them in different places.

3 molecules from paper PMC8291587, “Guanidine Derivatives: How Simple Structural Modification of Histamine H3R Antagonists Has Led to the Discovery of Potent Muscarinic M2R/M4R Antagonists” (ACS Chemical Neuroscience, 2021) can be followed below.

Experiment [1] has as its system electrically stimulated guinea pig ileum. The experiment can be described thus: Decrease of contractility in electrically stimulated guinea pig ileum (-log EC50 determination). The conditions noted are these: for EC50: Cavia porcellus, read-out: Decrease of contractility (-logEC50 ± sem) (converted); for intrinsic activity (maximal response as fraction of maximal response of the system): from concentration–response curves. As to the method:
A standard ex vivo assay based on the relaxant response of histamine H3R agonists to electrically driven guinea pig ileum was used to test the influence of ADS compounds on the reduction of electrically evoked tissue contraction. […] The −log EC50 value for RAMH and ADS compounds were evaluated. […] Following this, we decided to evaluate the ADS series as potential M2R/M3R ligands on the isolated guinea pig ileum.
Male guinea pigs, weighing 300–400 g, were euthanized by a blow to the neck. A 20–30 cm length of the distal ileum, apart from the terminal 5 cm, was rapidly removed and placed in phosphate buffer at room temperature (pH 7.4) containing (mM) NaCl (136.9), KCl (2.6), KH2PO4 (1.47), Na2HPO4 (9.58), and indomethacin (1 × 10^–6 mol/L)). The intraluminal content was rinsed, and the isolated intestine was cut into 1.5–2 cm segments. The preparations were mounted between two platinum electrodes isotonically in a 20 mL organ bath filled with Krebs buffer: composition (mM) NaCl (118), KCl (5.6), MgSO4 (1.18), CaCl2 (2.5), NaH2PO4·H2O (1.28), NaHCO3 (25), glucose (5.55), and indomethacin (3 × 10^–7 mol/L). The solution was continuously bubbled with a 95% O2:5% CO2 mixture and maintained at 37 °C under a constant load of 1.0 g (Hugo Sachs Hebel–Messvorsatz (Tl-2)/HF-modem; Hugo Sachs Elektronik, Hugstetten, Germany) connected to a pen recorder (Kipp & Zonen BD41, Delft, Holland). During an equilibration period of 60 min, Krebs buffer was changed every 10 min. Following this, the preparations were continuously stimulated at 15–20 V, at a frequency of 0.1 Hz for a duration of 0.5 ms, with rectangular-wave electrical pulses (Grass Stimulator S-88; Grass Instruments Co., Quincy, Massachusetts, USA). […] Cumulative concentration–response curve was determined to RAMH or tested agonist (10 nM to 10 mM) at increasing concentrations spaced by 3- or 3.3-fold. The agonist potency is expressed as pD2 value (−log EC50) ± sem.

Experiment [2] deals with M2R/M3R. Nature of the experiment: Ex vivo screening of muscarinic M2R/M3R antagonists on isolated guinea pig ileum (methacholine-induced contraction). The following applies: methacholine as agonist. As to the method: Another group of guinea pig intestinal receptors able to regulate smooth muscle contraction is that of the muscarinic receptors, including M2R and M3R. All compounds were tested on the muscarinic receptors using the same animal model. This approach is similar to measuring histamine H1R antagonist activity. Methacholine was used as a receptor agonist, while 1,1-dimethyl-4-diphenylacetoxypiperidinium iodide (4-DAMP) was used as a reference M3R antagonist. As methacholine is not selective according to M2R and M3R, it is not possible to precisely specify which one was responsible for the effect observed on the tissue preparations. Some authors often attribute the results to the minor M3R subtype (gpM2R:M3R = 4:1 or 5:1), which is generally associated with the contractions,[38] but such an overinterpretation may be misleading, as indicated by our further hM1R-hM5R radioligand binding assay results shown in Table 2. […] These findings partially explain the influence of ADS10227 on the contractility of guinea pig ileum following electrical stimulation. […] In subsequent studies, we tried to clarify this.
Male guinea pigs, weighing 300–400 g, were euthanized by a blow to the neck. A 20–30 cm length of the distal ileum, apart from the terminal 5 cm, was rapidly removed and placed in phosphate buffer at room temperature (pH 7.4) containing (mM) NaCl (136.9), KCl (2.6), KH2PO4 (1.47), Na2HPO4 (9.58), and indomethacin (1 × 10^–6 mol/L)). The intraluminal content was rinsed, and the isolated intestine was cut into 1.5–2 cm segments. The preparations were mounted isotonically in a 20 mL organ bath filled with Tyrode’s buffer: composition (mM) NaCl (137), KCl (2.7), MgCl2·6H2O (1.0), CaCl2 (1.8), NaH2PO4·H2O (0.4), NaHCO3 (11.9), glucose (5.61), and indomethacin (3 × 10^–7 mol/L). The solution was continuously bubbled with a 95% O2:5% CO2 mixture and maintained at 37 °C under a constant load of 0.5 g (Hugo Sachs Hebel–Messvorsatz (Tl-2)/HF-modem; Hugo Sachs Elektronik, Hugstetten, Germany) connected to a pen recorder (Kipp & Zonen BD41, Delft, Holland). During an equilibration period of 40 min, Tyrode’s buffer was changed every 10 min. The first cumulative concentration–response curve was determined for methacholine (10 nM to 3 mM) at increasing concentrations spaced by 3- or 3.3-fold. The second to the fourth (or fifth) curves were measured in the presence of an increasing concentration of antagonist (incubation time 20 min). The pA2 values were calculated according to Arunlakshana and Schild.[37] Statistical analysis was carried out with the Students’ t test. In all tests, a p < 0.05 was considered statistically significant.

Experiment [3] addresses T1, H1R (Cavia porcellus, UniProt P31389).
T1 construct: from tissue; host or cells: isolated distal ileum of male guinea pigs
The experiment can be described thus: Ex vivo screening of histamine H1R antagonists on guinea pig ileum, variant with 0.05 μM atropine. The following applies: isolated guinea pig ileum, histamine as agonist. As to the method:
The second histamine receptor located in the guinea pig ileum is H1R. […] The H1R antagonistic effect was measured on isolated guinea pig ileum stimulated to contract by histamine.[37] To assess and exclude the influence of the ADS compounds on muscarinic receptors, two test variations were used: one with the addition of 0.05 μM atropine and one without.
Male guinea pigs, weighing 300–400 g, were euthanized by a blow to the neck. A 20–30 cm length of the distal ileum, apart from the terminal 5 cm, was rapidly removed and placed in phosphate buffer at room temperature (pH 7.4) containing (mM) NaCl (136.9), KCl (2.6), KH2PO4 (1.47), Na2HPO4 (9.58), and indomethacin (1 × 10^–6 mol/L). The intraluminal content was rinsed, and the isolated intestine was cut into 1.5–2 cm segments. The preparations were mounted isotonically in a 20 mL organ bath filled with Krebs buffer: composition (mM) NaCl (118), KCl (5.6), MgSO4 (1.18), CaCl2 (2.5), NaH2PO4·H2O (1.28), NaHCO3 (25), glucose (5.55), and indomethacin (3 × 10^–7 mol/L). […] The solution was continuously bubbled with a 95% O2:5% CO2 mixture and maintained at 37 °C under a constant load of 0.5 g (Hugo Sachs Hebel–Messvorsatz (Tl-2)/HF-modem; Hugo Sachs Elektronik, Hugstetten, Germany) connected to a pen recorder (Kipp & Zonen BD41, Delft, Holland). During an equilibration period of 40 min, Krebs buffer was changed every 10 min. The first cumulative concentration–response curve was determined for histamine (10 nM to 10 mM) at increasing concentrations spaced by 3- or 3.3-fold. The second to the fourth (or fifth) curves were measured in the presence of an increasing concentrations of antagonist (incubation time 10 min). The pA2 values were calculated according to Arunlakshana and Schild.[37] Statistical analysis was carried out with the Students’ t test. In all tests, a p < 0.05 was considered statistically significant.

The mark [4] stands for this setting: electrically stimulated guinea pig ileum.
Where [5] appears, read: read-out: H1R+atropine pA2 gpi ± sem (converted).

T1 sequence (P31389 whole entry): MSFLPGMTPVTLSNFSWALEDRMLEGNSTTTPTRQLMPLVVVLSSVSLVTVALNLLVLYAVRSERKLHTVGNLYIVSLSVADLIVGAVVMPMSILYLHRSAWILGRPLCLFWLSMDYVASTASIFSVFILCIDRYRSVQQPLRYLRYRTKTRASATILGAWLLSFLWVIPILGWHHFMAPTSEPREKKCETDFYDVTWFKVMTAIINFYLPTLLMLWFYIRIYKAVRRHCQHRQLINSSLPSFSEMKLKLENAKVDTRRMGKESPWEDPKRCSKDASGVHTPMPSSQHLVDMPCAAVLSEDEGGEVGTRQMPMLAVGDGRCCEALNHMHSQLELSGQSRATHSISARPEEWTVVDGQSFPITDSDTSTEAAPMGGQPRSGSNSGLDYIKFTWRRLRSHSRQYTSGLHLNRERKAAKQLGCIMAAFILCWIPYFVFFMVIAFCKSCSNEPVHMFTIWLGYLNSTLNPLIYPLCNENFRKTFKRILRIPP

Take `N=C(N)N(CCCCN1CCN(CCCCCCCOc2ccccc2)CC1)Cc1ccccc1` [ADS1017]: the EC50 in experiment [1] is 661 nM. Also, in experiment [2], the “M2R/M3R pA2 gpi ± sem” value is 6.36 and 6.36 ±0.10. In addition, the Kb in experiment [3] (H1R+atropine pA2 gpi ± sem) is 251 nM.

Regarding `N=C(N)N(CCCCN1CCN(C[C@H]2CC[C@@H](COc3ccccc3)CC2)CC1)Cc1ccccc1` [ADS10227, 1-{4-{4-{[4-(phenoxymethyl)cyclohexyl]methyl}piperazin-1-yl}but-1-yl}-1-(benzyl)guanidine], in experiment [1] (setting [4]), the EC50 was 132 nM and the “intrinsic activity (maximal response as fraction of maximal response of the system)” value is listed as 0.97. The “M2R/M3R pA2 gpi ± sem” value in experiment [2] is 6.97±0.09. Further, in experiment [3] (setting [5]), the Kb was 257 nM.

As for `[H]/N=C(/N)N(CCCCN1CCN(CC2CCC(COc3ccccc3)CC2)CC1)Cc1ccc(C(F)(F)F)cc1` (centres unmarked) [ADS10239], in experiment [1] (setting [4]), the EC50 is 240 nM and the “intrinsic activity (maximal response as fraction of maximal response of the system)” value came out at 0.98. Moreover, the “M2R/M3R pA2 gpi ± sem” value in experiment [2] amounted to 6.46±0.11. Further, the Kb in experiment [3] (setting [5]) was 151 nM.
